# Data: PMC7048748, “Anxiolytic Drug FGIN-1-27 Ameliorates Autoimmunity by Metabolic Reprogramming of Pathogenic Th17 Cells” (Scientific Reports, 2020)
# Tests used:
# [1] = test system: eIF2α; experiment: Western blot for phosphorylated eIF2α; format: cell-based, mouse; conditions: 24 hours, compared to DMSO controls
# Method: (a) MA-plot showing shrunken log2 fold-changes of detected genes between the DMSO and FGIN-1-27 RNA-seq samples, ranked by average normalized count. Red dots indicate differentially expressed genes at adjusted p-value <0.05. (b) Transcript levels for the indicated genes after 24 hours of treatment with DMSO or FGIN-1-27 quantified by qPCR. The error bars represent SD. (c) Western blot analysis for phosphorylated eIF2α and ATF4 24 hours after treatment with DMSO or FGIN-1-27 (5 and 10 µM). Data are representative of 3 independent experiments. (d) Amino acids in Th17 cells measured 72 hours after treatment with FGIN-1-27. The error bars represent SD. (e) ROS was measured using cell permeant reagent 2′,7′ –dichlorofluorescin diacetate (DCFDA) at 24 hours following treatment with FGIN-1-27. Filled grey histogram-DMSO, dotted line-FGIN-1-27 (10 µM) and dashed line indicates FGIN-1-27 (5 µM). […] Data are normalized using DMSO treated cells as 100% and the error bars represent SD.
# Cell lysates were prepared by lysis in RIPA buffer containing protease and phosphatase inhibitors and immunoblotting was performed by standard methods.
# (a) W estern blot analysis for phosphorylated eIF2α and ATF4 24 hours after treatment
# with DMSO or FGIN-1-27 (5 and 10 µM). […]
# (a) Indicated sterols were measured in Th17 cells treated with DMSO or FGIN-1-27 for […]
# [2] = test system: Th17 cells; experiment: Th17 differentiation assay, intracellular IL-17 by flow cytometry; format: cell-based, mouse
# Method: Because of differential TSPO expression in Th17 cells (Fig. S1a) and up-regulation of TSPO in neuroinflammation, we tested whether TSPO ligands, such as FGIN-1-27, can affect Th17 differentiation. In this assay, purified CD4^+ T cells from mouse spleens and lymph nodes were cultured under Th17 polarizing conditions. […] FGIN-1-27 treatment had no effect on protein or transcript levels of RORγt, the Th17 lineage-determining transcription factor.
# Figure 1 FGIN-1-27 Inhibits Th17 Differentiation. Naïve CD4 T cells from spleens and lymph nodes of C57BL/6 mice were differentiated under Th17 polarization conditions and were treated with DMSO (control) or FGIN-1-27. (a) Dose response plot showing effect of FGIN-1-27 on intracellular IL-17 and viability on day 4 post activation quantified by flow cytometry. Data is normalized against DMSO (100%). […] (b) Dot plots showing DMSO or FGIN-1-27 treated cells stained for surface CD4, CD44, intracellular IL-17 and intranuclear RORγt. (c) Transcript levels for the indicated genes after 24 hours of treatment with DMSO or FGIN-1-27 quantified by qPCR. Data was normalized to a housekeeping gene, β-actin. Data are representative of at least 3 independent experiments and the error bars indicate standard deviation.
# Single cell suspensions were prepared from spleens and lymph nodes of mice by mechanical disruption. Red blood cells were lysed by ammonium chloride followed by CD4^+ T cell purification using either CD4 microbeads (Miltenyi Biotec) or sorting for naïve CD4^+ T cells (FACS Aria). 250,000 cells/well in a 48 well plate were polarized into Th17 cells using Th17 differentiation cocktail: IFNγ, IL-4, IL-12 neutralizing antibodies (10 μg/ml) and 10 ng/ml each of IL-6, IL-1b, IL-21 and TGF-β (0.5 ng/ml). Cells were treated with FGIN-1-27 (Tocris Bioscience) or DMSO at 18 hour and 48 hours post cell plating. On day 4 of culture, cells were re-stimulated with PMA-ionomycin in the presence of brefeldin A. Cells were subsequently stained with viability dye and surface stained for CD44, CD4 followed by permeabilization using cytofix/cytoperm (BD biosciences) and stained for intracellular IL-17. RORγt intranuclear staining was performed after fixation and permeabilization with a Foxp3/Transcription Factor Staining kit (eBioscience). Cells were acquired on BD Fortessa followed by analysis using Flowjo (Tree star Inc).
smiles,measurement,setting,value
"CCCCCCN(CCCCCC)C(=O)Cc1c(-c2ccc(F)cc2)[nH]c2ccccc12 [FGIN-1-27, N, N-di-n-hexyl 2-(4-fluorophenyl) indole-3-acetamide]",increase in eIF2α phosphorylation,[1],4.5 fold
same,protein or transcript levels of RORγt,[2],no effect
same,proliferation (CFSE dilution),[2]; 72 hours post treatment,proliferated to the same extent as DMSO treated cells
same,IC50,"[2]; Mus musculus, 96 h, day 4 post activation, normalized against DMSO (100%)",4.85 µM
same,viability,[2]; Th17 polarizing conditions,without compromising viability
same,IL-17 producing cells abolished,[2]; compared to DMSO treated cultures,85%
same,"CD4 / CD44 dot plot, percent of cells","[2]; treated cells, Fig. 1b",98%
same,"IL-17 / RORγt dot plot, percent of cells","[2]; treated cells, Fig. 1b",8.0%
